Holding throughout (assay): biochemical
Holding throughout (parameters): Ubiquigent DUB profiler selectivity panel, remaining enzyme activity as % of control
Common to all, as to conditions: read-out: % of control remaining

Test [1] addresses T1, OTUD1 (Homo sapiens, UniProt Q5VV17).
T1 sequence (Q5VV17 1-481): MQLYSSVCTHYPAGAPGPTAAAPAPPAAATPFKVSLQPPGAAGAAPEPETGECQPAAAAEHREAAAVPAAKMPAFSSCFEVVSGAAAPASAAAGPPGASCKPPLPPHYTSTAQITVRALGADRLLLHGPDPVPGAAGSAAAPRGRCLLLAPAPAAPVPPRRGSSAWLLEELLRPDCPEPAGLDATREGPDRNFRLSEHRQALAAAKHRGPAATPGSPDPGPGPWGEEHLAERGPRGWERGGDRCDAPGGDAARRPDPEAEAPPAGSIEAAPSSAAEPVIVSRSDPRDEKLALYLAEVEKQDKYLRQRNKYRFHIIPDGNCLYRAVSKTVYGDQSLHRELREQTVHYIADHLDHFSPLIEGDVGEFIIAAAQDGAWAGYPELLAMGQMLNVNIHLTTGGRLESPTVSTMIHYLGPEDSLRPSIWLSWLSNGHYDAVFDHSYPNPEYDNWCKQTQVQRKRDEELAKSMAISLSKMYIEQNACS
Summed up: (§1)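 CMPD-39 selectivity was profiled at 1-100 μM across >40 DUBs. Cellular engagement used 2 h CMPD-39 pretreatment, then HA-Ub-PA probe for 10 min at 37°C, with USP30 band shift on immunoblot. TOMM20 ubiquitylation was blotted in YFP-PRKN hTERT-RPE1 cells after 1 h antimycin A/oligomycin A (1 μM each).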

Test [2] has as its target T2, OTUD5 (p177S) (Homo sapiens, UniProt Q96G74).
T2 construct: phosphorylated S177
T2 sequence (Q96G74 1-571): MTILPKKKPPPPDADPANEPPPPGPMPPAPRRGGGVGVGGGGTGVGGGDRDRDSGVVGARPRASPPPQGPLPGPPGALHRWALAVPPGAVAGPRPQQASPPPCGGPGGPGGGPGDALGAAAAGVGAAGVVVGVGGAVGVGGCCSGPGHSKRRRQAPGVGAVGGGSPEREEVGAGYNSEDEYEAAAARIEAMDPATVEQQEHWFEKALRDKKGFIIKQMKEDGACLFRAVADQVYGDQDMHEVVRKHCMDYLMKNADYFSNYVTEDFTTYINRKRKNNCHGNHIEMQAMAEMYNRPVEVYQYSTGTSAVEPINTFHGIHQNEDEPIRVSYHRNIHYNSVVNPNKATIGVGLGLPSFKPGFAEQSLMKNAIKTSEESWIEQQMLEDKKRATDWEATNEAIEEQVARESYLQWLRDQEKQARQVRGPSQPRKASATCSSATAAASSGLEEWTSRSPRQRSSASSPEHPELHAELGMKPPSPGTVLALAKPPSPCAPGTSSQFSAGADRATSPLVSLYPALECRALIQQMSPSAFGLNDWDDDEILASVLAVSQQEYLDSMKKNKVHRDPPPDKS
Summed up:
as §1

The target in test [3] is USP16 (Homo sapiens, UniProt Q9Y5T5). Summed up: as §1

Structures are written as SMILES.

Drawing on paper PMC8645336, “Benchmarking a highly selective USP30 inhibitor for enhancement of mitophagy and pexophagy” (Life Science Alliance, 2021), this text covers remaining activity for one compound.

Sequence of USP16 (Q9Y5T5 whole entry): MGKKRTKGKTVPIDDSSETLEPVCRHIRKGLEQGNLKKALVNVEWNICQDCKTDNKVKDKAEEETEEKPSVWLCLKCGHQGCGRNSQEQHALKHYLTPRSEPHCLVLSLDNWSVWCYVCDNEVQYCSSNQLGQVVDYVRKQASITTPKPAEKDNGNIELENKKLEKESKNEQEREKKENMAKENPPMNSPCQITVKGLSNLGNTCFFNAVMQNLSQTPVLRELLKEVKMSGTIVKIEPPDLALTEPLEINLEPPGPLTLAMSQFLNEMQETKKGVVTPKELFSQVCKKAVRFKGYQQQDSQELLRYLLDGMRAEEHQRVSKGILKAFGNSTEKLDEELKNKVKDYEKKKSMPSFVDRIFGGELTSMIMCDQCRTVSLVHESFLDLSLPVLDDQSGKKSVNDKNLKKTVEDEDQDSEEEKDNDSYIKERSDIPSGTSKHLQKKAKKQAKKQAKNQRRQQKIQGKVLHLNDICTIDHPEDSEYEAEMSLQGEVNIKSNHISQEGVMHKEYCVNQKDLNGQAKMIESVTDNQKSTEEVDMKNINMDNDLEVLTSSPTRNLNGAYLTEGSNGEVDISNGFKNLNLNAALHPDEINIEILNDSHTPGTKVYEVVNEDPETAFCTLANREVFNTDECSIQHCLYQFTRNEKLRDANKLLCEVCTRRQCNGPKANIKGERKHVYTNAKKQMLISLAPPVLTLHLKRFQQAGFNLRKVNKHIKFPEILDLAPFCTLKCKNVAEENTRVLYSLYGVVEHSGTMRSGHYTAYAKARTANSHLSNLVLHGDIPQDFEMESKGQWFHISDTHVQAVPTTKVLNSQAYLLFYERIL

On to `CC(C)(C)NS(=O)(=O)c1ccc(NC(=O)[C@H](Cc2ccccc2)NC(=O)c2ccc(F)cc2)cc1` [compound 39, CMPD-39], for which, in test [1], the remaining activity at 1 µM is 99.9%, the remaining activity at 10 µM was found to be 93.4% and the remaining activity at 100 µM amounted to 98%. Also, in test [2], the remaining activity at 1 µM is 108%, the remaining activity at 10 µM is 106% and the remaining activity at 100 µM is 89.9%. In test [3], the remaining activity at 1 µM was 111%, the remaining activity at 10 µM came to 100% and the remaining activity at 100 µM was 104%.
